# Data as given in ChEMBL document CHEMBL1201862, “PubChem BioAssay data set” (2004).
# Calls of active or inactive are those of the source.
# Key:
# Beta-lactamase [1] = molecular target: T1, Beta-lactamase (Pseudomonas aeruginosa, UniProt Q79MP6); experiment: […] counterscreen for selective VIM-2 inhibitors: dose response biochemical high throughput screening assay to identify inhibitors of IMP-1 metallo-beta-lactamase.
# Beta-lactamase [2] = molecular target: Beta-lactamase (Salmonella choleraesuis (strain SC-B67), UniProt Q5J463); experiment: Epi-absorbance-based counterscreen for selective VIM-2 inhibitors: dose response biochemical high throughput screening assay to identify inhibitors of TEM-1 serine-beta-lactamase.
# Beta-lactamase [3] = molecular target: T1, Beta-lactamase; experiment: inhibition of IMP-1 beta-lactamase activity – biochemical, epi-absorbance, selectivity assay for VIM-2 inhibitor project, dose response (AID 1920)
# H9c2 = experiment: cells; type: functional, cell-based; settings: Rattus norvegicus, H9c2, Myocardium;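 further: confirmatory concentration-response retest of ultra-high-throughput screening hits for modulation of myocardial damage; cell death induced by hydrogen peroxide oxidative stress; compound pretreatment for 60 min then peroxide exposure for 2 h; potency is for protecting the cells against peroxide damage rather than for killing them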
# [4] = molecular target: T2, Small ubiquitin-related modifier 2 (Homo sapiens, UniProt P61956); experiment: SUMO2 binding disruption by SUMO1 hits – biochemical, FRET, human SUMO2, uHTS hits, selectivity assay for SUMO1 interaction inhibitor project, dose response (AID 624384); type: functional; settings: read-out: IC50_Mean
# [5] = molecular target: T3, Small ubiquitin-related modifier 1 (Homo sapiens, UniProt P63165); experiment: SUMO1 protein-protein binding blockers, potency – biochemical, FRET, dose response (AID 624383); type: functional; settings: read-out: IC50_Mean
# [6] = molecular target: T3, Small ubiquitin-related modifier 1; experiment: SUMO1 protein interaction blockers, potency – biochemical, fluorescence polarization, uHTS hits, dose response (AID 624382); type: functional; settings: read-out: IC50_Mean
# [7] = molecular target: T2, Small ubiquitin-related modifier 2; experiment: disruption of SUMO2 interaction with SIM peptide – biochemical, fluorescence polarization, uHTS hits, selectivity assay for SUMO1 interaction inhibitor project, dose response (AID 624385); type: functional; settings: read-out: IC50_Mean
# [8] = molecular target: Long-chain-fatty-acid--AMP ligase FadD28 (Mycobacterium tuberculosis, UniProt P9WQ59); experiment: Fluorescence polarization aasay to screen for inhibitors that compete for the binding of FadD28 to a bisubstrate Measured in Biochemical System Using Plate Reader - 2147-01_Inhibitor_Dose_CherryPick_Activity.; type: functional, Mycobacterium tuberculosis H37Rv
# [9] = molecular target: ADP-ribosylation factor GTPase-activating protein 1 (Rattus norvegicus, UniProt Q62848); experiment: Fluorescence polarization-based biochemical high throughput dose response screening assay to identify inhibitors of ADP-ribosylation factor GTPase activating protein 1 (ARFGAP1).; type: functional
# [10] = molecular target: Arf-GAP with SH3 domain, ANK repeat and PH domain-containing protein 1 (Homo sapiens, UniProt Q9ULH1); type: functional;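 further: biochemical fluorescence polarization dose–response screen measuring inhibition of ASAP1; ASAP1 GAP domain stimulating GTP hydrolysis by truncated human ARF1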
# [11] = molecular target: T4, DNA repair protein RAD52 homolog (Homo sapiens, UniProt P43351); type: functional, biochemical
# T4 sequence (P43351 whole entry): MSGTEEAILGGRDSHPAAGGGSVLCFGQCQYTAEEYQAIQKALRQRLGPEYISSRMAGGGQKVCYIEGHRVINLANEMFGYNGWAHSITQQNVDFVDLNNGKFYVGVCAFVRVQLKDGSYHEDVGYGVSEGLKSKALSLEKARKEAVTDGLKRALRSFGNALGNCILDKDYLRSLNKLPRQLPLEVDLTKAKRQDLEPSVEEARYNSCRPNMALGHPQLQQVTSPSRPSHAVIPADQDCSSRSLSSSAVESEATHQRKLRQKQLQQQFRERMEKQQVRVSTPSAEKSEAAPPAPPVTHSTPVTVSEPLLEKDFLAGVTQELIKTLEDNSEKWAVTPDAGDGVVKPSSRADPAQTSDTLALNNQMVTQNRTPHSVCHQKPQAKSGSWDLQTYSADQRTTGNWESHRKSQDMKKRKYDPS
# [12] = viability loss in HeLa cells – cytotoxicity control for MgcRacGAP inhibitor project, dose response (AID 624300); type: functional
# [13] = molecular target: Ras and Rab interactor 1/Tyrosine-protein kinase ABL1 (Homo sapiens, UniProt P00519+Q13671); type: functional;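 further: biochemical TR-FRET dose-response test measuring inhibition of binding between Rin1 and Abl proteins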
# [14] = molecular target: T5, Rac GTPase-activating protein 1 (Homo sapiens, UniProt Q9H0H5); experiment: blockers of MgcRacGAP-driven Rac1 GTP hydrolysis – biochemical, ADP Hunter fluorescence, primary and confirmatory, confirmation (AID 624330); type: functional
# T5 sequence (Q9H0H5 whole entry): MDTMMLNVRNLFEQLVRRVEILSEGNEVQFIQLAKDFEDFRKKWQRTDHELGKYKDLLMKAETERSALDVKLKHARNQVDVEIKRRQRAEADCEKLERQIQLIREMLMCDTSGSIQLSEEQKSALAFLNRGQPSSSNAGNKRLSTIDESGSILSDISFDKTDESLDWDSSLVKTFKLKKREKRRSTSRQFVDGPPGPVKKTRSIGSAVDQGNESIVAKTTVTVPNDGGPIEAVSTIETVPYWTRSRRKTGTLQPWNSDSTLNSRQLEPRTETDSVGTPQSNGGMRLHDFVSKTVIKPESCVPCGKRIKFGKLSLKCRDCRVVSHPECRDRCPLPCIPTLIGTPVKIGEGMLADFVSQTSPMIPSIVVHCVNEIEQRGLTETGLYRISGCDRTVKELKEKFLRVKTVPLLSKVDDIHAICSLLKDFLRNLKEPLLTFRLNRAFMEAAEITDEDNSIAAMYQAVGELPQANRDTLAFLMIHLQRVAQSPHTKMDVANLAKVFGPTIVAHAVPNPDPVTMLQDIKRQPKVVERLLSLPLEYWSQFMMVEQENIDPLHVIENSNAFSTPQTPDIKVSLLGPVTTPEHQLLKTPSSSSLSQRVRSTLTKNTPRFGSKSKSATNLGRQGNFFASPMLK
# Protein Wnt-3a = Protein Wnt-3a (Mus musculus, UniProt P27467); experiment: antagonism of Wnt3a pathway luciferase reporter – Wnt-LIGHT cells, luminescence, selectivity assay for Gli-SUFU antagonist project, dose response (AID 651570); type: functional; settings: read-out: IC50_Mean;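 further: Wnt-LIGHT reporter cells stimulated with conditioned medium from Wnt3a-producing cells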
# [15] = molecular target: T6, Low molecular weight phosphotyrosine protein phosphatase (Homo sapiens, UniProt P24666); type: functional; settings: read-out: IC50_Mean
# T6 sequence (P24666 whole entry): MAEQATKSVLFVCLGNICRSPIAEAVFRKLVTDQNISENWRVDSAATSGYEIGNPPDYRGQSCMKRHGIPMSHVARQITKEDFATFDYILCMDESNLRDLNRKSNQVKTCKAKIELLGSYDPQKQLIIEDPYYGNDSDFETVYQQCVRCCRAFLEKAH
# [16] = molecular target: T6, Low molecular weight phosphotyrosine protein phosphatase; type: functional; settings: read-out: IC50_Mean; remark: listed apart in the source
# [17] = molecular target: T7, Ubiquitin-conjugating enzyme E2 N (Homo sapiens, UniProt P61088); type: functional;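 further: Dose-response confirmation in a TR-FRET assay detecting UBC13-driven polyubiquitin chain formation, inhibition measured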
# T7 sequence (P61088 whole entry): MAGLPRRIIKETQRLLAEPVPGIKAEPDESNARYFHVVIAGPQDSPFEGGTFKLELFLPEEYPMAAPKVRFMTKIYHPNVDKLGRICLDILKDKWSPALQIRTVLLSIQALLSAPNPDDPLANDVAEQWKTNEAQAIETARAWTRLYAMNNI
# Interleukin-8 = Interleukin-8 (Homo sapiens, UniProt P10145); experiment: Dose Response confirmation of uHTS small molecule hits for cystic fibrosis induced NFkb Inhibitors in a PAF-induced IL8 counterscreen.; type: functional; settings: read-out: IC50_Mean
# Interleukin-8, sequence (P10145 whole entry): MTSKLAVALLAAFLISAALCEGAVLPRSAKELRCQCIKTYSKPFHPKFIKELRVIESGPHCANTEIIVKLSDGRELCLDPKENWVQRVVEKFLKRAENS
# T1 sequence (Q79MP6 whole entry): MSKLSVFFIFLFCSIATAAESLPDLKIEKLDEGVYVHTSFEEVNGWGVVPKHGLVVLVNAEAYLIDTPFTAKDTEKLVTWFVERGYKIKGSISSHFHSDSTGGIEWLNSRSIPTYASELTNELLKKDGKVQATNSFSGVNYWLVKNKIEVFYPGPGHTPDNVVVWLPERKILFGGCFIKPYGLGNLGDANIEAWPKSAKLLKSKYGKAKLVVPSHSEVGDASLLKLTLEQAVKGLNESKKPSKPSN
# T2 sequence (P61956 whole entry): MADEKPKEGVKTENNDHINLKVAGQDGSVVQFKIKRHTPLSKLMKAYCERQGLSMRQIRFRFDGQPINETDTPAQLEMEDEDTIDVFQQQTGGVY
# T3 sequence (P63165 whole entry): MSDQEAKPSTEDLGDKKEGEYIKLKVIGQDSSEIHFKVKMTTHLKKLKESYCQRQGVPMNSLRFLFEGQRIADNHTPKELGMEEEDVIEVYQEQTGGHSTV
# Long-chain-fatty-acid--AMP ligase FadD28, sequence (P9WQ59 whole entry): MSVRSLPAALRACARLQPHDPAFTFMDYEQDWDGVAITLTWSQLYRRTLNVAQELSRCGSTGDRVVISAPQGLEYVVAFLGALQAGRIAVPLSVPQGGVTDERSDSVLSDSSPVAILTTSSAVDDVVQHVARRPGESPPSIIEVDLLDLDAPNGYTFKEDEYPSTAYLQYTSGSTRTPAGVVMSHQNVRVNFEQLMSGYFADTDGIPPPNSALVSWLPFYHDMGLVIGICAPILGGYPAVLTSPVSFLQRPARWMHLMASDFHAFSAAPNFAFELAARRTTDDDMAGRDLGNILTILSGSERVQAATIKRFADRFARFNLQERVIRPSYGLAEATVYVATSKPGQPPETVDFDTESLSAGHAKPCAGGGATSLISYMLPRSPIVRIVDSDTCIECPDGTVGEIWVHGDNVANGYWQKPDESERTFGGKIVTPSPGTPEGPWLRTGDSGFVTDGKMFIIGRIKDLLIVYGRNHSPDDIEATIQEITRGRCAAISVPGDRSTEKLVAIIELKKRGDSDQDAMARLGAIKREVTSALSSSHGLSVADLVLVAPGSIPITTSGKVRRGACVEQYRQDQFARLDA
# Beta-lactamase (Salmonella choleraesuis (strain SC-B67), UniProt Q5J463), sequence (Q5J463 whole entry): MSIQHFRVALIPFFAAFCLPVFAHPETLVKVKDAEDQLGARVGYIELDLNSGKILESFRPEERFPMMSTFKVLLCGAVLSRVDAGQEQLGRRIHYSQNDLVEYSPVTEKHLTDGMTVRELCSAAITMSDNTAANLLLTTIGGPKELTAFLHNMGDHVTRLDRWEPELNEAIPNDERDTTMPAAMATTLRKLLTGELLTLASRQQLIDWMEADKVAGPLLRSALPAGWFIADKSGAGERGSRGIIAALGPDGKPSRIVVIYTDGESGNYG
# ADP-ribosylation factor GTPase-activating protein 1, sequence (Q62848 whole entry, the tested form may be a part): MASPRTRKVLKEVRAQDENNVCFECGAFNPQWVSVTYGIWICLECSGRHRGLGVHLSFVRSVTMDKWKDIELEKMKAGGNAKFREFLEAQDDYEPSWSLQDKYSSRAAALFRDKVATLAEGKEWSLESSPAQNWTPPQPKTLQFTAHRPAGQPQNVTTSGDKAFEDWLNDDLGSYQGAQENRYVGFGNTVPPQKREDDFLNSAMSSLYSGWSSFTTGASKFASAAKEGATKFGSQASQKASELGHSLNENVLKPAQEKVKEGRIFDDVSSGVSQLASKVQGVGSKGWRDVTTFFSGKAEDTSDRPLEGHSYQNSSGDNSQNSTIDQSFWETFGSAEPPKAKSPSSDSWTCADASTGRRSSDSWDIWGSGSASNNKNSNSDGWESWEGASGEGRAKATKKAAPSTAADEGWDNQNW
# Arf-GAP with SH3 domain, ANK repeat and PH domain-containing protein 1, sequence (Q9ULH1 whole entry, the tested form may be a part): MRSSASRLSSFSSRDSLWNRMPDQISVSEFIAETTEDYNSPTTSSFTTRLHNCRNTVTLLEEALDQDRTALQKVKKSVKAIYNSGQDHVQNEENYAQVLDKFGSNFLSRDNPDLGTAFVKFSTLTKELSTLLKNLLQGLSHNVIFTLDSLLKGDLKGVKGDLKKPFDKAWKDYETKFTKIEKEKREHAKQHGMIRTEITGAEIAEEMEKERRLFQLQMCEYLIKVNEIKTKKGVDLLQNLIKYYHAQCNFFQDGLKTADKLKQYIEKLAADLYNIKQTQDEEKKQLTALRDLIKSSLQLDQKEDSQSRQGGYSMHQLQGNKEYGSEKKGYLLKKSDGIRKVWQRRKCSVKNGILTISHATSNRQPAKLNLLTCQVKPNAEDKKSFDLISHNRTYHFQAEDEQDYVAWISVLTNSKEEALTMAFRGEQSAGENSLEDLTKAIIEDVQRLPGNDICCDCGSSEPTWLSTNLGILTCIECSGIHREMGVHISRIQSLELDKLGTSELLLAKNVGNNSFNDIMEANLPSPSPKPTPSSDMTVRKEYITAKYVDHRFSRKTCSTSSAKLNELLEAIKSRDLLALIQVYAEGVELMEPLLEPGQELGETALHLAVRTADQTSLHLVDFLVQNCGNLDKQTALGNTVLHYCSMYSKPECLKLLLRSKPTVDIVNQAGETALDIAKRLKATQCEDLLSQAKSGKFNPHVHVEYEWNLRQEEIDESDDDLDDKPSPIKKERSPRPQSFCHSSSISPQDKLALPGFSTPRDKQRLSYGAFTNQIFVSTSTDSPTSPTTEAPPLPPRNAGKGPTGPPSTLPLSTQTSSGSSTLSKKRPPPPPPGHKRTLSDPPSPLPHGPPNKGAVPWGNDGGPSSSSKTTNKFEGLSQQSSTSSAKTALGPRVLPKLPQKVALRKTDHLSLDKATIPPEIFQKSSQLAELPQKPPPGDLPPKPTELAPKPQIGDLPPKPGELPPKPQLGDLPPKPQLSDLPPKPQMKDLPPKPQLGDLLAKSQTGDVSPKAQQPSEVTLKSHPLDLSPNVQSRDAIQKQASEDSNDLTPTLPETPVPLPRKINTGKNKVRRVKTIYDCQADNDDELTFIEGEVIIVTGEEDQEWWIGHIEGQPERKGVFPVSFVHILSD
# Ras and Rab interactor 1/Tyrosine-protein kinase ABL1, sequence (P00519 whole entry): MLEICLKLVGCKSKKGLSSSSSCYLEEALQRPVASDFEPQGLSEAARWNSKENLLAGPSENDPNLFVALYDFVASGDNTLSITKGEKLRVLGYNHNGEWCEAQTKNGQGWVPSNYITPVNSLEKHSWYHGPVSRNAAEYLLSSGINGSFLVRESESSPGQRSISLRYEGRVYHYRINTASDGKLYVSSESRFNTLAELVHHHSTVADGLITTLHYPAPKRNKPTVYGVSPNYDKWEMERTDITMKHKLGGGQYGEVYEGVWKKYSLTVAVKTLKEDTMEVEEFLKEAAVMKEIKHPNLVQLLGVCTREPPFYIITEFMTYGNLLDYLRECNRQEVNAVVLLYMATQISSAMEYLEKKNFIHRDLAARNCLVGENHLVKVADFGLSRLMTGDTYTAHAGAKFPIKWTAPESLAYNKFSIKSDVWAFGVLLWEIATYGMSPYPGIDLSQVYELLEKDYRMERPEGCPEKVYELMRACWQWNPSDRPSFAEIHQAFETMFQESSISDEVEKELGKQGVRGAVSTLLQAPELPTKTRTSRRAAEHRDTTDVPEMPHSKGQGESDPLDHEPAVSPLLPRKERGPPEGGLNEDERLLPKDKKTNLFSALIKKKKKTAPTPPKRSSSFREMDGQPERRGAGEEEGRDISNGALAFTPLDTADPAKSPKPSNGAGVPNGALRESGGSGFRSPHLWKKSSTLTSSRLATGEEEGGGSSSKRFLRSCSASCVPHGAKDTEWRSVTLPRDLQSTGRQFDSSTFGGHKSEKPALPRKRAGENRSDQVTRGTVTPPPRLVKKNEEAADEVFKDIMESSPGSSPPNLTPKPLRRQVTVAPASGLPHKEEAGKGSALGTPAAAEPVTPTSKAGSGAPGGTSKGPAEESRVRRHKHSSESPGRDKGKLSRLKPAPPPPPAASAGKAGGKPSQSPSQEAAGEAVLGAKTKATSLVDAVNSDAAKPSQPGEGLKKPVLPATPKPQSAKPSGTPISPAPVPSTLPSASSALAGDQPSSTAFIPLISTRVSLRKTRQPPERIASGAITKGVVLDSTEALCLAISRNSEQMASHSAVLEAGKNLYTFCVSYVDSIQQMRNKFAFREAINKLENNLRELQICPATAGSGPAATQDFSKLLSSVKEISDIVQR
# Ras and Rab interactor 1/Tyrosine-protein kinase ABL1, sequence (Q13671 whole entry): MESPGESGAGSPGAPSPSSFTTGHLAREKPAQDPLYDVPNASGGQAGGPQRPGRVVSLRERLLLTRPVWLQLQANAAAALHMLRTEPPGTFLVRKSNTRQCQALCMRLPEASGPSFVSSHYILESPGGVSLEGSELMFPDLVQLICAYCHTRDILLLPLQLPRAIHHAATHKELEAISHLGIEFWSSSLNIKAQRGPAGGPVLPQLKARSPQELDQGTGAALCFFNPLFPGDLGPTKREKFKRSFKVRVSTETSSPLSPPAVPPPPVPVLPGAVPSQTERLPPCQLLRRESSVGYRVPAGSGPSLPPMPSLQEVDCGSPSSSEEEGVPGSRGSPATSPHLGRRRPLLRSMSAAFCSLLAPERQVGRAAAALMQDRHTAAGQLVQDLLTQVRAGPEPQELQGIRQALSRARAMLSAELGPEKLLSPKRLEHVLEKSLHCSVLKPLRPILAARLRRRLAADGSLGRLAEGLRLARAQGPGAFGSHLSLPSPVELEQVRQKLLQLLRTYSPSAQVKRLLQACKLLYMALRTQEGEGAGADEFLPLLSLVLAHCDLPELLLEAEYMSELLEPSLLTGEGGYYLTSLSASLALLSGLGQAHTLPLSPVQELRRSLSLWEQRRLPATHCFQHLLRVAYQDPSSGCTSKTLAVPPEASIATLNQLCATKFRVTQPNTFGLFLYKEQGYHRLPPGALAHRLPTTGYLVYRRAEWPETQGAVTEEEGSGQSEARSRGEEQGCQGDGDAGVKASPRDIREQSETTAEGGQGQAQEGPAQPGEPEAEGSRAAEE
compound,measurement,setting,value
Cc1ccccc1C(=O)Nc1nnc(SCC(=O)NCc2ccco2)s1,IC50,Beta-lactamase [1],> 59.6 µM (inactive)
same,IC50,Beta-lactamase [2],> 59.6 µM (inactive)
same,IC50,Beta-lactamase [3],> 59.6 µM (inactive)
Nc1cc2nc(O)c3ccccc3c2cc1[N+](=O)[O-],IC50,H9c2,> 79 µM (inactive)
same,IC50,[4],> 66 µM (inactive)
same,IC50,[5],51.8 µM (inactive)
same,IC50,[6],1.02 µM (active)
same,IC50,[7],45.7 µM (inactive)
CCn1ncc(Br)c1C(=O)Nc1ccc(OC(F)(F)F)cc1,AC50,[8],52 µM (active)
CC(=O)c1cccc(NC(=O)c2cccc3c(-c4cccnc4)coc23)c1,IC50,[9],129 µM (inactive)
same,IC50,[10],79.4 µM (inactive)
COc1cccc2c3cccc(OC)c3c3[nH]cnc3c12,AC50,[11],0.513 µM (active)
same,CC50,[12],43.9 µM (active)
same,IC50,[13],15.8 µM (inactive)
same,IC50,[14],82.8 µM (active)
C/C(=N\NC(=O)C(=O)Nc1ccc(C)c(Cl)c1)c1ccncc1,IC50,Protein Wnt-3a,0.909 µM (active)
COCCNc1nc(NCc2ccc(C)cc2C)c2sccc2n1,IC50,[15],15.6 µM (active)
same,IC50,[16],13.8 µM (active)
CN(C)c1ccnc2sc3c(=O)n(Cc4ccccc4)cnc3c12,IC50,[17],> 20 µM (inactive)
same,IC50,Interleukin-8,12.2 µM (inactive)
